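How tested: cells in 96-well plates exposed to compound for 48 hours at five concentrations. GI50 marks 50% less growth.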 Calls of active or inactive are those of the source. No stated cut-off is given here; in the data, active = GI50 up to about 1.1 µM and inactive = higher.
Tests used:
Experiment in all cases: inhibition of tumour cell growth, NCI panel, 48 h
COLO 205 = system: COLO 205
HCT-15 = system: HCT-15
SW-620 = system: SW-620
OVCAR-5 = system: OVCAR-5
EKVX = system: EKVX
SK-OV-3 = system: SK-OV-3
UACC-62 = system: UACC-62
OVCAR-8 = system: OVCAR-8
IGROV-1 = system: IGROV-1
OVCAR-3 = system: OVCAR-3
CCRF-CEM = system: CCRF-CEM
KM12 = system: KM12
U-251 = system: U-251
LOX IMVI = system: LOX IMVI
A549 = system: A549
NCI-H23 = system: NCI-H23
SNB-19 = system: SNB-19
M14 = system: M14
TK-10 = system: TK-10
Malme-3M = system: Malme-3M

Row | Compound | GI50 (COLO 205) | GI50 (HCT-15) [µM] | GI50 (SW-620) | GI50 (OVCAR-5) | GI50 (EKVX) | GI50 (SK-OV-3) | GI50 (UACC-62) | GI50 (OVCAR-8) | GI50 (IGROV-1) | GI50 (OVCAR-3) | GI50 (CCRF-CEM) | GI50 (KM12) | GI50 (U-251) | GI50 (LOX IMVI) | GI50 (A549) | GI50 (NCI-H23) | GI50 (SNB-19) | GI50 (M14) | GI50 (TK-10) | GI50 (Malme-3M)
1 | O=C(NCCCl)O/N=C/c1cccnc1 | > 100 µM (inactive) | > 100 | > 100 µM (inactive) | > 100 µM (inactive) | > 100 µM (inactive) | > 100 µM (inactive) | > 100 µM (inactive) | > 100 µM (inactive) | > 100 µM (inactive) | > 100 µM (inactive) | > 100 µM (inactive) | > 100 µM (inactive) | > 100 µM (inactive) | > 100 µM (inactive) | > 100 µM (inactive) | > 100 µM (inactive) | > 100 µM (inactive) |  |  | 
2 | COc1cc(C2C3=C(N=C4SC(C(C)=O)=C(C)N42)c2ccccc2CC3)cc(OC)c1OC (stereo unspecified) | 54.3 µM (inactive) |  | > 100 µM (inactive) | > 100 µM (inactive) | 85.5 µM (inactive) | > 100 µM (inactive) | > 100 µM (inactive) | > 100 µM (inactive) | 52 µM (inactive) | > 100 µM (inactive) | > 100 µM (inactive) | > 100 µM (inactive) | > 100 µM (inactive) | > 100 µM (inactive) | > 100 µM (inactive) | > 100 µM (inactive) | > 100 µM (inactive) | > 100 µM (inactive) |  | 
3 | O=C1Nc2ccccc2C(=O)/C1=C/NC(=S)NCCc1ccccc1 | > 100 µM (inactive) | > 100 | > 100 µM (inactive) | > 100 µM (inactive) | > 100 µM (inactive) | > 100 µM (inactive) | > 100 µM (inactive) | > 100 µM (inactive) | > 100 µM (inactive) | > 100 µM (inactive) |  | 55.3 µM (inactive) | > 100 µM (inactive) | > 100 µM (inactive) | > 100 µM (inactive) | > 100 µM (inactive) | > 100 µM (inactive) | > 100 µM (inactive) | 22.1 µM (inactive) | 
4 | O=C1C(N2CCNCC2)=C(Cl)C(=O)c2ncccc21 | > 10 µM (inactive) | > 10 | 3.72 µM (inactive) | > 10 µM (inactive) | > 10 µM (inactive) | > 10 µM (inactive) | > 10 µM (inactive) | 6.19 µM (inactive) | > 10 µM (inactive) | > 10 µM (inactive) | 8.59 µM (inactive) | > 10 µM (inactive) | > 10 µM (inactive) |  | > 10 µM (inactive) | > 10 µM (inactive) | > 10 µM (inactive) | > 10 µM (inactive) | > 10 µM (inactive) | > 10 µM (inactive)
5 | COC(=O)C1=C(C)N2CCOC2CC1c1ccccc1 (stereo unspecified) | > 100 µM (inactive) |  | > 100 µM (inactive) |  | > 100 µM (inactive) |  | > 100 µM (inactive) | > 100 µM (inactive) | > 100 µM (inactive) | 49.5 µM (inactive) | 45.4 µM (inactive) | > 100 µM (inactive) |  |  | > 100 µM (inactive) | 84.1 µM (inactive) | > 100 µM (inactive) | > 100 µM (inactive) | > 100 µM (inactive) | 
6 | Oc1cn(-c2ccc(Cl)cc2)nc1-c1nnc(-c2ccccc2)o1 | 1.87 µM (inactive) | 0.262 | 1.94 µM (inactive) | 1.58 µM (inactive) | 1.16 µM (inactive) | 12.9 µM (inactive) | 2.09 µM (inactive) | 0.277 µM (active) | 0.989 µM (active) | 0.404 µM (active) |  | 0.0847 µM (active) | 0.2 µM (active) |  | 0.118 µM (active) | 0.155 µM (active) | 3.03 µM (inactive) |  | 0.17 µM (active) | 8.34 µM (inactive)
7 | CC(=O)Nc1ccc(C(=O)NN2C(=O)C(Cl)C2c2cccc([N+](=O)[O-])c2)cc1 (stereo unspecified) | > 100 µM (inactive) |  | > 100 µM (inactive) | > 100 µM (inactive) |  | > 100 µM (inactive) | > 100 µM (inactive) | > 100 µM (inactive) | > 100 µM (inactive) | > 100 µM (inactive) | > 100 µM (inactive) | > 100 µM (inactive) | > 100 µM (inactive) |  | > 100 µM (inactive) | > 100 µM (inactive) | > 100 µM (inactive) |  | > 100 µM (inactive) | > 100 µM (inactive)
8 | O=C1C(=C2CCCC2)CCC1CN1CCCCC1 (stereo unspecified) | 25.7 µM (inactive) | 16.3 | 16.4 µM (inactive) | 19.8 µM (inactive) | 18.8 µM (inactive) |  | 18.5 µM (inactive) | 21.5 µM (inactive) | 18.4 µM (inactive) | 16.9 µM (inactive) | 14.3 µM (inactive) | 18.6 µM (inactive) | > 100 µM (inactive) |  | > 100 µM (inactive) | 18.7 µM (inactive) | > 100 µM (inactive) | 15.7 µM (inactive) | 14.1 µM (inactive) | 16.3 µM (inactive)
